As usually defined, the pIC50 is the negative decadic logarithm of the IC50, by convention in mol/L.

SMILES strings stand for the structures. pIC50: −log10 of the molar value. Like-named read-outs stand apart in the source and are kept apart here. Some results are limits rather than exact numbers.

One assay concerns MIA PaCa-2 cells. Kind of assay: Growth inhibition activity on KRAS-G12C mutant cell line (CellTiter-Glo 3D). It counts as cell-based, human. As to conditions: MIA PaCa-2, 3-day culture with compound. Here is the method:
MIA PaCa-2 cells (given by Sumitomo Dainippon Pharma Co., Ltd.), which are a KRAS-G12C mutant human pancreas cancer cell line, were suspended in a 10% fetal bovine serum-containing RPMI1640 medium (manufactured by Fujifilm Wako Pure Chemical Corporation). The cell suspension was seeded into each well of a 384-well U bottom microplate and cultured in an incubator containing 5% CO2 gas at 37° C. for 1 day. The compounds obtained in the “Preparation of Compounds” section were used as test compounds and were dissolved in DMSO, respectively, and each test compound was diluted with DMSO to give a concentration 500 times the final concentration. The resultant solution of the test compound in DMSO was diluted with the medium used for suspending cells and added to each well of the cell-culture plate to give a DMSO final concentration of 0.2%, followed by culture in an incubator containing 5% CO2 gas at 37° C. for another 3 days. The cell count after 3-day culture in the presence of the test compound was measured using CellTiter-Glo 3D Reagent (manufactured by Promega Corporation). All wells were added with CellTiter-Glo 3D Reagent and mixed for 10 minutes. 30 minutes after mixing, luminescence was measured by a plate reader. The growth inhibition rate was calculated from the following equation, and the concentration of the test compound at which 50% inhibition was achieved (IC50 (nM)) was determined.
[formula] • T: the emission intensity in a well into which a test compound was added. • C: the emission intensity in a well into which a test compound was not added.

In assay [1] the target is T1, interaction between GMPPNP-bound recombinant K-Ras4B G12C mutant protein and cRAF RAS-binding domain (cRAF-RBD) (Homo sapiens, UniProt P01116, G12C).
T1 construct: His-tag (N)
The assay can be described thus: Inhibitory activity on interaction between KRAS G12C and cRAF (Alpha technology). As for the experimental part:
Interaction between recombinant K-Ras4B G12C mutant protein (amino acids 1-169, SEQ ID NO:2) and cRAF RAS-binding domain (cRAF-RBD, amino acids 50-132, Jena Biosciences GmbH) was measured using Alpha technology (PerkinElmer Inc.).
Recombinant KRAS G12C protein with an N-terminal His-tag was expressed in E. coli and purified by affinity chromatography. To prepare GTP-bound form and GDP-bound form of KRAS G12C protein, 50 μM KRAS G12C protein was incubated with 1 mM GMPPNP (Guanosine-5′-[(β,γ)-imido]triphosphate, Tetralithium salt) (Jena Bioscience GmbH) and 1 mM GDP, respectively, in a loading buffer (20 mM Tris-HCl (pH 7.5), 50 mM NaCl, 1 mM DTT and 2.5 mM EDTA) for 1 hour on ice. After the incubation, MgCl2 was added to a final concentration of 10 mM, followed by incubation at room temperature for 30 minutes. The mixture was allowed to pass through a NAP-5 column to remove free nucleotides and purified, and the resultant nucleotide-bound KRAS G12C protein was used for compound evaluation.
For the measurement of the inhibitory activity of compounds on interaction between KRAS G12C and cRAF-RBD, GMPPNP-bound KRAS G12C protein was incubated with various concentrations of compound in a reaction buffer (20 mM Tris-HCl (pH 7.5), 100 mM NaCl, 1 mM MgCl2, 1 mM TCEP, 0.1% Tween 20) at 25° C. for 1 hour. After the incubation, recombinant cRAF-RBD and Alpha detection reagents were added and incubated at room temperature for 1.5 hours for binding. Interaction of KRAS G12C and cRAF-RBD was monitored by measuring Alpha signal. Inhibition % was calculated using the signal from the reaction without test compound (DMSO control) as 0% inhibition and the signal from the reaction using GDP-bound KRAS G12C in place of GMPPNP-bound KRAS G12C as 100% inhibition. IC50 values were calculated from dose titration curve using curve fitting by XLfit software (IDBS).

[2] abbreviates: GMPPNP-bound KRAS G12C incubated with compound 25° C. 1 hour, Table 2, read-out: IC50.
The mark [3] stands for this setting: Homo sapiens, MIA PaCa-2, 72 h, Table 3-1.
Setting [4] is: GMPPNP-bound KRAS G12C incubated with compound 25° C. 1 hour, Table 2-1, read-out: IC50.
Setting [5] is: IC50, GMPPNP-bound KRAS G12C incubated with compound 25° C. 1 hour, Table 2-1.

T1 sequence (P01116 with tags, fused parts or gaps isoform P01116-2 G12C): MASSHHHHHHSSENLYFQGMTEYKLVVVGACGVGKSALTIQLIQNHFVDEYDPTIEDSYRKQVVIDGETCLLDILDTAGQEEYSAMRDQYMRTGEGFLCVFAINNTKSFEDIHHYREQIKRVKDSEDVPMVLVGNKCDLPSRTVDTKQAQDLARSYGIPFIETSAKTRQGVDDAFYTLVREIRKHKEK

In the case of `CO[C@H]1CC[C@H](NC/C=C/C(=O)Nc2c(F)cc(C(=O)c3cc4c5c(cccn35)-c3c(C(F)(F)F)cc5c(nc(C)n5C)c3OCC4)cc2F)CC1` (single isomer, unassigned) [Example 30-2, (E)-N-(4-(9,10-dimethyl-7-(trifluoromethyl)-13,14-dihydro-9H-imidazo[4″,5″:5′,6′]benzo[1′,2′:2,3]oxocino[4,5,6-hi]indolizine-2-carbonyl)-2,6-difluorophenyl)-4-(((1r,4r)-4-methoxycyclohexyl)amino)but-2-enamide], the values for the negative-log IC50 (pIC50) (in the assay on MIA PaCa-2 cells (Table 3); in assay [1] (setting [2])) were 5.80 and 5.22, respectively.

With `Cc1nc2c3c(c(C(F)(F)F)cc2n1C)-c1cccn2c(C(=O)c4cc(F)c(NC(=O)/C=C/CNC5(C)COC5)c(F)c4)cc(c12)CCO3` (single isomer, unassigned) [Example 31-1, (E)-N-(4-(9,10-dimethyl-7-(trifluoromethyl)-13,14-dihydro-9H-imidazo[4″,5″:5′,6′]benzo[1′,2′:2,3]oxocino[4,5,6-hi]indolizine-2-carbonyl)-2,6-difluorophenyl)-4-((3-methyloxetan-3-yl)amino)but-2-enamide], the pIC50 with MIA PaCa-2 cells (Table 3) is 8.15; in assay [1] (setting [2]), 7.96.

Consider `Cc1nc2c3c(c(C(F)(F)F)cc2n1C)-c1cccn2c(C(=O)c4cc(F)c(NC(=O)/C=C/CNC5(C)COC5)c(F)c4)cc(c12)CCO3` (single isomer, unassigned) [Example 31-2, (E)-N-(4-(9,10-dimethyl-7-(trifluoromethyl)-13,14-dihydro-9H-imidazo[4″,5″:5′,6′]benzo[1′,2′:2,3]oxocino[4,5,6-hi]indolizine-2-carbonyl)-2,6-difluorophenyl)-4-((3-methyloxetan-3-yl)amino)but-2-enamide], for which the pIC50 is 5.04 with MIA PaCa-2 cells (Table 3) and less than 5.17 in assay [1] (setting [2]).

As for `Cc1nc2c3c(c(C(F)(F)F)cc2n1C)-c1cccn2c(C(=O)c4cc(F)c(NC(=O)/C=C/CN(C)C)c(F)c4)cc(c12)CCO3` (single isomer, unassigned) [Example 38-1], the negative-log IC50 (pIC50) in the assay on MIA PaCa-2 cells (Table 3) was 5.08; in assay [1] (setting [2]) it was less than 5.17.

In the case of `Cc1nc2c3c(c(C(F)(F)F)cc2n1C)-c1cccn2c(C(=O)c4cc(F)c(NC(=O)/C=C/CN(C)C)c(F)c4)cc(c12)CCO3` (single isomer, unassigned) [Example 38-2], the negative-log IC50 (pIC50) in the assay on MIA PaCa-2 cells (Table 3) is 7.72; in assay [1] (setting [2]), 7.57.

As to `CO[C@H]1CC[C@H](NC/C=C/C(=O)Nc2c(F)cc(C(=O)c3cc4c5c(cccn35)-c3c(C(F)(F)F)cc5c(nc(C)n5C)c3OC(C)C4)cc2F)CC1` (single isomer, unassigned) [Example 42-1, (E)-N-(2,6-difluoro-4-(9,10,13-trimethyl-7-(trifluoromethyl)-13,14-dihydro-9H-imidazo[4″,5″:5′,6′]benzo[1′,2′:2,3]oxocino[4,5,6-hi]indolizine-2-carbonyl)phenyl)-4-(((1r,4r)-4-methoxycyclohexyl)amino)but-2-enamide], the pIC50 in the assay on MIA PaCa-2 cells (Table 3) was 8.22; in assay [1] (setting [2]), 7.96.

As to `CO[C@H]1CC[C@H](NC/C=C/C(=O)Nc2c(F)cc(C(=O)c3cc4c5c(cccn35)-c3c(C(F)(F)F)cc5c(nc(C)n5C)c3OC(C)C4)cc2F)CC1` (single isomer, unassigned) [Example 42-2, (E)-N-(2,6-difluoro-4-(9,10,13-trimethyl-7-(trifluoromethyl)-13,14-dihydro-9H-imidazo[4″,5″:5′,6′]benzo[1′,2′:2,3]oxocino[4,5,6-hi]indolizine-2-carbonyl)phenyl)-4-(((1r,4r)-4-methoxycyclohexyl)amino)but-2-enamide], the pIC50 is 6.35 with MIA PaCa-2 cells (Table 3) and 5.96 in assay [1] (setting [2]).

On to `Cc1nc2c3c(c(C(F)(F)F)cc2n1C)-c1cccn2c(C(=O)c4cc(F)c(NC(=O)/C=C/CNC5(C)CCOC5)c(F)c4)cc(c12)CCO3` (single isomer, unassigned) [Example 52], for which the negative logarithm of the IC50 (pIC50) with MIA PaCa-2 cells (setting [3]) was 8.84; in assay [1] (setting [4]), 8.34.

With `Cc1nc2c3c(c(C(F)(F)F)cc2n1C)-c1cccc2c(C(=O)c4cc(F)c(NC(=O)/C=C/CNC5(C)COC5)c(F)c4)cn(c12)CCN3C` (single isomer, unassigned) [Example 54], the negative-log IC50 (pIC50) with MIA PaCa-2 cells (setting [3]) is 8.27; in assay [1] (setting [5]), 7.66.

As for `CO[C@H]1CC[C@H](NC/C=C/C(=O)Nc2c(F)cc(C(=O)c3cn4c5c(cccc35)-c3c(C(F)(F)F)cc5c(nc(C)n5C)c3N(C)CC4)cc2F)CC1` (single isomer, unassigned) [Example 55, (E)-N-(2,6-difluoro-4-(8,9,11-trimethyl-6-(tri-fluoromethyl)-8,11,12,13-tetrahydroimidazo[4″,5″: 5′,6′]benzo[1′,2′:5,6][1,4]-diazocino[7,8,1-hi]indole-2-carbonyl)phenyl)-4-(((1r,4r)-4-methoxycyclo-hexyl)amino)but-2-en-amide], the negative logarithm of the IC50 (pIC50) in the assay with MIA PaCa-2 cells (setting [3]) is 8.47; in assay [1] (setting [5]), 7.93.

Turning to `CO[C@H]1CC[C@H](NC/C=C/C(=O)Nc2c(F)cc(C(=O)c3cn4c5c(cccc35)-c3c(C)cc5c(nc(C)n5C)c3N(C)CC4)cc2F)CC1` (single isomer, unassigned) [Example 62], the pIC50 with MIA PaCa-2 cells (setting [3]) is 8.16; in assay [1] (setting [5]), 7.76.

For `CO[C@H]1CC[C@H](NC/C=C/C(=O)Nc2c(F)cc(C(=O)c3cc4c5c(cccn35)-c3c(C(F)(F)F)cc5c(nc(C)n5C)c3N(C)CC4)cc2F)CC1` (single isomer, unassigned) [Example 63, (E)-N-(2,6-difluoro-4-(9,10,12-trimethyl-7-(tri-fluoromethyl)-9,12,13,14-tetrahydroimidazo-[4″,5″:5′,6′]benzo[1′,2′: 2,3]azocino[4,5,6-hi]-indolizine-2-carbonyl)-phenyl)-4-(((1r,4r)-4-methoxycyclohexyl)-amino)but-2-enamide], the pIC50 with MIA PaCa-2 cells (setting [3]) is 8.61; in assay [1] (setting [4]) it was 7.85.

`CO[C@H]1CC[C@H](NC/C=C/C(=O)Nc2c(F)cc(C(=O)c3c(C)c4c5c(cccn35)-c3c(C(F)(F)F)cc5c(nc(C)n5C)c3OCC4)cc2F)CC1` (single isomer, unassigned) [Example 64, (E)-N-(2,6-difluoro-4-(1,9,10-trimethyl-7-(tri-fluoromethyl)-13,14-dihydro-9H-imidazo-[4″,5″:5′,6′]benzo[1′,2′: 2,3]oxocino[4,5,6-hi]-indolizine-2-carbonyl)-phenyl)-4-(((1r,4r)-4-methoxycyclohexyl)-amino)but-2-enamide]: the pIC50 with MIA PaCa-2 cells (setting [3]) is 7.96; in assay [1] (setting [4]) it was 7.85.

With `Cc1cc2c(nc(C)n2C)c2c1-c1cccc3c(C(=O)c4cc(F)c(NC(=O)/C=C/CNC5(C)COC5)c(F)c4)cn(c13)CCN2C` (single isomer, unassigned) [Example 65, (E)-N-(2,6-difluoro-4-(6,8,9,11-tetramethyl-8,11,12,13-tetrahydro-imidazo[4″,5″:5′,6′]benzo-[1′,2′:5,6][1,4]diazocino-[7,8,1-hi]indole-2-carbon-yl)phenyl)-4-((3-methyl-oxetan-3-yl)amino)but-2-enamide], the pIC50 is 7.02 in the assay with MIA PaCa-2 cells (setting [3]) and 7.16 in assay [1] (setting [5]).
